Measurements from the supplement of paper PMC11451515.

Tested on: P12-Ichikawa
Experiment: cell viability relative to DMSO control; higher = less cytotoxic
Settings: 48 h
Procedure, shortened: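 Library compounds in DMSO were pin-dosed into 1536-well plates (5 μl) holding NOMO1 or SEM (500 cells/well) or P12-Ichikawa (1000 cells/well) leukemia cells, across an 11-point threefold series of 47 μM to 0.79 nM. Each cell line had been adapted for at least four passages in each medium. CellTiter-Glo One luminescence was read after 48 h at 37°C. Viability is the per-plate percentage relative to DMSO wells, with cell-free wells as background.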

[1] = HPLM + 10% dialyzed FBS, 0.000781 µM
[2] = HPLM + 10% dialyzed FBS, 0.00234 µM
[3] = HPLM + 10% dialyzed FBS, 0.00702 µM
[4] = HPLM + 10% dialyzed FBS, 0.0211 µM
[5] = HPLM + 10% dialyzed FBS, 0.0632 µM
[6] = HPLM + 10% dialyzed FBS, 0.19 µM
[7] = HPLM + 10% dialyzed FBS, 0.569 µM
[8] = HPLM + 10% dialyzed FBS, 1.71 µM
[9] = HPLM + 10% dialyzed FBS, 5.12 µM
[10] = HPLM + 10% dialyzed FBS, 15.4 µM
[11] = HPLM + 10% dialyzed FBS, 46.1 µM
[12] = RPMI 5 mM glucose + 10% FBS, 0.000781 µM
[13] = RPMI 5 mM glucose + 10% FBS, 0.00234 µM
[14] = RPMI 5 mM glucose + 10% FBS, 0.00702 µM
[15] = RPMI 5 mM glucose + 10% FBS, 0.0211 µM
[16] = RPMI 5 mM glucose + 10% FBS, 0.0632 µM
[17] = RPMI 5 mM glucose + 10% FBS, 0.19 µM
[18] = RPMI 5 mM glucose + 10% FBS, 0.569 µM
[19] = RPMI 5 mM glucose + 10% FBS, 1.71 µM
[20] = RPMI 5 mM glucose + 10% FBS, 5.12 µM
[21] = RPMI 5 mM glucose + 10% FBS, 15.4 µM
[22] = RPMI 5 mM glucose + 10% FBS, 46.1 µM
[23] = RPMI 5 mM glucose + 10% dialyzed FBS, 0.000781 µM
[24] = RPMI 5 mM glucose + 10% dialyzed FBS, 0.00234 µM
[25] = RPMI 5 mM glucose + 10% dialyzed FBS, 0.00702 µM
[26] = RPMI 5 mM glucose + 10% dialyzed FBS, 0.0211 µM
[27] = RPMI 5 mM glucose + 10% dialyzed FBS, 0.0632 µM
[28] = RPMI 5 mM glucose + 10% dialyzed FBS, 0.19 µM
[29] = RPMI 5 mM glucose + 10% dialyzed FBS, 0.569 µM
[30] = RPMI 5 mM glucose + 10% dialyzed FBS, 1.71 µM
[31] = RPMI 5 mM glucose + 10% dialyzed FBS, 5.12 µM
[32] = RPMI 5 mM glucose + 10% dialyzed FBS, 15.4 µM
[33] = RPMI 5 mM glucose + 10% dialyzed FBS, 46.1 µM

| SMILES | cell viability [1] | cell viability [2] | cell viability [3] | cell viability [4] | cell viability [5] | cell viability [6] | cell viability [7] | cell viability [8] | cell viability [9] | cell viability [10] | cell viability [11] | cell viability [12] | cell viability [13] | cell viability [14] | cell viability [15] | cell viability [16] | cell viability [17] | cell viability [18] | cell viability [19] | cell viability [20] | cell viability [21] | cell viability [22] | cell viability [23] | cell viability [24] | cell viability [25] | cell viability [26] | cell viability [27] | cell viability [28] | cell viability [29] | cell viability [30] | cell viability [31] | cell viability [32] | cell viability [33] |
| --- | --- | --- | --- | --- | --- | --- | --- | --- | --- | --- | --- | --- | --- | --- | --- | --- | --- | --- | --- | --- | --- | --- | --- | --- | --- | --- | --- | --- | --- | --- | --- | --- | --- |
| CN1CCc2c(c3ccccc3n2Cc2ccc(C(=O)NO)cc2)C1 | 84.8% | 83.9% | 87.7% | 89.6% | 91.5% | 85% | 89.6% | 83.6% | 87.5% | 68% | 66.9% | 81% | 77.4% | 78.6% | 80.7% | 84.1% | 73.1% | 79.9% | 83.4% | 84.2% | 64.1% | 56.8% | 82.2% | 81.3% | 83.1% | 78.4% | 81.9% | 78% | 83.3% | 77.8% | 86.5% | 63.3% | 68.1% |
| Cc1cc(Nc2ncc3c(n2)N(C)C(=O)N(c2cc(NC(=O)c4cccc(C(F)(F)F)c4)ccc2C)C3)n(C)n1 | 116% | 114% | 117% | 120% | 119% | 120% | 114% | 90.4% | 79.3% | 55.8% | 7.23% | 106% | 120% | 124% | 123% | 133% | 115% | 105% | 73.5% | 66.5% | 52.5% | 5.53% | 111% | 119% | 116% | 132% | 124% | 122% | 111% | 76.1% | 72.1% | 50.9% | 5.1% |
| C[C@H](CCC(=O)O)[C@H]1CC[C@H]2[C@@H]3[C@H](O)C[C@@H]4C[C@H](O)CC[C@]4(C)[C@H]3CC[C@]12C | 94.6% | 87.9% | 93.9% | 92.4% | 98.8% | 97.5% | 93.3% | 92.8% | 92.2% | 93.9% | 94.2% | 91% | 88.4% | 89.2% | 91.7% | 90.5% | 90.1% | 90.7% | 90% | 88.1% | 89.8% | 95.6% | 81.1% | 82.7% | 93.3% | 93% | 89.6% | 85.3% | 88.2% | 87.2% | 86.5% | 85.9% | 91.1% |
| NC1=NC(=O)N2CC12 (stereo unspecified) | 91% | 103% | 101% | 107% | 103% | 97% | 103% | 99.7% | 83.1% | 3.88% | 2.17% | 92.5% | 91.2% | 96.2% | 102% | 106% | 97.4% | 104% | 67.8% | 59% | 2.82% | 0.916% | 85.3% | 94.6% | 92.1% | 90.9% | 87.4% | 88.5% | 95.6% | 73.5% | 59.9% | 6.25% | 2.73% |
| CC(=O)SC[C@@H](C)C(=O)N1CCC[C@H]1C(=O)N[C@@H](Cc1ccccc1)C(=O)O | 99.5% | 108% | 108% | 104% | 113% | 107% | 106% | 104% | 102% | 101% | 94.1% | 103% | 93.2% | 97.6% | 100% | 102% | 97.8% | 102% | 96.7% | 98.4% | 91.3% | 90% | 99.7% | 101% | 102% | 101% | 99.7% | 100% | 95.4% | 101% | 92.2% | 90.8% | 85.2% |
| OC(=O)\C1=C\N(C2CC2)C3=CC(=C(F)C=C3C1=O)N4CCNCC4 | 110% | 114% | 114% | 111% | 112% | 112% | 115% | 113% | 96.6% | 91.9% | 68.7% | 102% | 104% | 115% | 108% | 112% | 113% | 115% | 100% | 104% | 92.3% | 63.9% | 99.4% | 106% | 113% | 111% | 112% | 108% | 113% | 114% | 99.4% | 90.5% | 64.7% |
| CC/C=C\C[C@H]1C(=O)CC[C@@H]1CC(=O)OC | 121% | 119% | 126% | 125% | 126% | 126% | 117% | 115% | 115% | 114% | 108% | – | – | – | – | – | – | – | – | – | – | – | 122% | 129% | 124% | 121% | 131% | 125% | 125% | 126% | 125% | 116% | 109% |
| C[C@@H]1[C@H]\2[C@H](O)[C@H]3[C@H](N(C)C)\C(=C(C(N)=O)/C(=O)[C@@]3(O)\C(=C2C(=O)C4=C(O)C=CC=C14)O)O | 114% | 122% | 125% | 127% | 129% | 126% | 131% | 129% | 127% | 126% | 113% | – | – | – | – | – | – | – | – | – | – | – | – | – | – | – | – | – | – | – | – | – | – |
